# Test results taken from US20240109917A1 (ACTELION PHARMACEUTICALS LTD, priority 2020, published 2024).
# Target: PDGFRβ (Rattus norvegicus (Rat), UniProt Q05030)
# Assay: PDGFRβ Cellular Assay (PDGFRb P-Y751 HTRF in A10 cells stimulated with PDGF-BB)
# Assay type: cell-based
# Settings: read-out: PDGFR Cellular IC50
# Method: II. Methods and Procedures
# Cell Culture and Preparation: Cells are cultured according to ATCC procedure (5) with the addition of the antibiotic penicillin-streptomycin. If working from frozen, cells should be thawed according to ATCC procedure. Depending on the cell density of frozen vial, cells will need time to recover from thaw. An 80% confluent T75 flask should be enough for one 384 well plate.
# Stock Solutions: Rat PDGFBB. A 100 ug/mL stock is prepared by reconstituting 50 ug in 500 uL of 4 mM HCl and 0.1% BSA. It can be stored for a month at 4° C., or aliquoted out and frozen in the −20/−80° C. to avoid multiple free-thaw cycles.
# Freshly Prepared Solutions:
# 1× Cisbio cell lysis buffer. The cell lysis buffer is diluted 4-fold with molecular grade water. The blocking agent is then diluted 25-fold in the diluted lysis buffer.
# Antibody solutions. Equal amounts d2 and cryptate antibody are diluted 20-fold in detection buffer.
# Rat PDGFBB. A working stock of 100 ng/mL is created from the stock solution in 10% FBS culture media.
# Step 1: Plating Cells: Media from the A10 cell flask is aspirated. The cells are rinsed with PBS and then trypsinized to disperse the cell layer. The cells are then pelleted are resuspended to 1.25e5 cells/mL. […] Plates are covered and placed in the incubator (37° C. 5% CO2) overnight to allow cells to adhere.
# Step 2: Compound Dispense: Approximately 18 hours after plating, dispense 40 nL compound onto cells using Echo. Column 12 is the neutral control DMSO, column 24 is the inhibitor control 10 mM Imatinib (10 uM final assay concentration). The plate is returned to the incubator for 3 hours.
# After 10 minutes the media is removed by flicking the plate.
# Step 4: Cell lysis and antibody addition: 20 uL lysis buffer per well is added to the plate via Tempest. 5 uL antibody solution is added per well via the Tempest. The plate is placed on the shaker at 230 rpm for 1 hour at room temperature.
# Step 5: Detection: The plate is read using the HTRF module on the BMG Pherastar. Data is analyzed using Genedata Screener.
# III. Calculations and Formulas
# % Inhibition: % Inhibition=(NC−sample)/(NC−PC)*100 where NC is the mean of negative control (reactions without inhibitor), and PC is the mean of positive control (10 μM imatinib).
# IC50 values are determined from a 4-parameter fit, using the following equation: Y=Bottom+(Top−Bottom)/(1+10((Log IC50−X)*Hill slope)), where X=log10 of the compound concentration; top can be defined by PC; bottom defined by NC.
# Sequence of PDGFRβ (Q05030 32-1097): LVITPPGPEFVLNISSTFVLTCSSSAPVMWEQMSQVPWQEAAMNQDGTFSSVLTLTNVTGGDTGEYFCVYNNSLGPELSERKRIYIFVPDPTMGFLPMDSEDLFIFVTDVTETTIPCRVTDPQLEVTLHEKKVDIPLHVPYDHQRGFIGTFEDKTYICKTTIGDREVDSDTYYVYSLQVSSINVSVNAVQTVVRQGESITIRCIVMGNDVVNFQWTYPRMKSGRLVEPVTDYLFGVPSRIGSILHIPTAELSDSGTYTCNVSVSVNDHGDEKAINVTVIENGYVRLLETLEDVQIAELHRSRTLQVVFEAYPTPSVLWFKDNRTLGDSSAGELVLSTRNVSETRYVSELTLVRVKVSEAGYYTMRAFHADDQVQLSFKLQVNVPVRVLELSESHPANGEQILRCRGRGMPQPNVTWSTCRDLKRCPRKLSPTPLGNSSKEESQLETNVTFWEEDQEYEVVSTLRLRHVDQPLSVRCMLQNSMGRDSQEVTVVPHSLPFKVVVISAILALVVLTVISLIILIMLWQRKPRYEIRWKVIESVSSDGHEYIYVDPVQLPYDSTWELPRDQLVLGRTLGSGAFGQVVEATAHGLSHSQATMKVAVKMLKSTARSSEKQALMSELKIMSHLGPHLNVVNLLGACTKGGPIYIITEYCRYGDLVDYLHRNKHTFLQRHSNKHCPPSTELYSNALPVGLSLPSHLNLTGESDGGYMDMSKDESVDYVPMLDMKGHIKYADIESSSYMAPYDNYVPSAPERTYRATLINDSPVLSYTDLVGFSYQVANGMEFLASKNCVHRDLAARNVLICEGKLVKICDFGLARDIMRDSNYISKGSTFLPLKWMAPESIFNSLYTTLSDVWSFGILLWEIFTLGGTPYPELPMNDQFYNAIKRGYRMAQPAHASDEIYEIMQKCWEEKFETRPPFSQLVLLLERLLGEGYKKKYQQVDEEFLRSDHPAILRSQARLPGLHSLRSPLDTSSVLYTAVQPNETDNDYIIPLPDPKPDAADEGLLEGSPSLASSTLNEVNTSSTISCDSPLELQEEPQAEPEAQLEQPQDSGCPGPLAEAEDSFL
row,Structure (SMILES),IC50 [nM]
1,"Cc1ncc(C(=O)NCCN2CCCC2(C)C)cc1NC(=O)c1cnn2cc(-c3ccn(C)n3)sc12 [Example 9, N-(5-((2-(2,2-dimethylpyrrolidin-1-yl)ethyl)carbamoyl)-2-methylpyridin-3-yl)-2-(1-methyl-1H-pyrazol-3-yl)pyrazolo[5,1-b]thiazole-7-carboxamide]",16.8
2,"Cc1ncc(C(=O)NCCN2CCC3(CC3)C2)cc1NC(=O)c1cnn2cc(-c3ccccn3)sc12 [Example 160, N-(5-((2-(5-azaspiro[2.4]heptan-5-yl)ethyl)carbamoyl)-2-methylpyridin-3-yl)-2-(pyridin-2-yl)pyrazolo[5,1-b]thiazole-7-carboxamide]",25.3
3,"Cc1ncc(C(=O)NCCN2CCOCC23CCC3)cc1NC(=O)c1cnn2cc(-c3cnn(C)c3)sc12 [Example 117, N-(5-((2-(8-oxa-5-azaspiro[3.5]nonan-5-yl)ethyl)carbamoyl)-2-methylpyridin-3-yl)-2-(1-methyl-1H-pyrazol-4-yl)pyrazolo[5,1-b]thiazole-7-carboxamide]",5.6
4,"Cc1ncc(C(=O)NCCN2CCC(F)(F)CC2)cc1NC(=O)c1cnn2cc(-c3cccnc3)sc12 [Example 157, N-(5-((2-(4,4-difluoropiperidin-1-yl)ethyl)carbamoyl)-2-methylpyridin-3-yl)-2-(pyridin-3-yl)pyrazolo[5,1-b]thiazole-7-carboxamide]",21.2
5,"CC(=O)N1CCN(CCNC(=O)c2cnc(C)c(NC(=O)c3cnn4cc(-c5cnn(C)c5)sc34)c2)CC1 [Example 129, N-(5-((2-(4-acetylpiperazin-1-yl)ethyl)carbamoyl)-2-methylpyridin-3-yl)-2-(1-methyl-1H-pyrazol-4-yl)pyrazolo[5,1-b]thiazole-7-carboxamide]",> 3000
6,"Cc1ncc(C(=O)NCCN2CC(C)(C)C2)cc1NC(=O)c1cnn2cc(-c3cnn(C)c3)sc12 [Example 126, N-(5-((2-(3,3-dimethylazetidin-1-yl)ethyl)carbamoyl)-2-methylpyridin-3-yl)-2-(1-methyl-1H-pyrazol-4-yl)pyrazolo[5,1-b]thiazole-7-carboxamide]",80.1
7,"Cc1ncc(C(=O)NCCN2CC3CCC2CC3)cc1NC(=O)c1cnn2cc(-c3cn(C)nc3C)sc12 [Example 178, N-(5-((2-(2-azabicyclo[2.2.2]octan-2-yl)ethyl)carbamoyl)-2-methylpyridin-3-yl)-2-(1,3-dimethyl-1H-pyrazol-4-yl)pyrazolo[5,1-b]thiazole-7-carboxamide]",18.7
8,"Cc1ncc(C(=O)NCCN2CCC3(CC3)C2)cc1NC(=O)c1cnn2cc(-c3cnn(C)c3C)sc12 [Example 170, N-(5-((2-(5-azaspiro[2.4]heptan-5-yl)ethyl)carbamoyl)-2-methylpyridin-3-yl)-2-(1,5-dimethyl-1H-pyrazol-4-yl)pyrazolo[5,1-b]thiazole-7-carboxamide]",33.7
9,"CC(=O)Nc1ccnc(-c2cn3ncc(C(=O)Nc4cc(C(=O)NCCN5CC6CCC5CC6)cnc4C)c3s2)c1 [Example 146, N-(5-((2-(2-azabicyclo[2.2.2]octan-2-yl)ethyl)carbamoyl)-2-methylpyridin-3-yl)-2-(4-acetamidopyridin-2-yl)pyrazolo[5,1-b]thiazole-7-carboxamide]",858
10,"COCCn1cc(-c2cn3ncc(C(=O)Nc4cc(C(=O)NCCN5CC(C)(C)C5)cnc4C)c3s2)cn1 [Example 166, N-(5-((2-(3,3-dimethylazetidin-1-yl)ethyl)carbamoyl)-2-methylpyridin-3-yl)-2-(1-(2-methoxyethyl)-1H-pyrazol-4-yl)pyrazolo[5,1-b]thiazole-7-carboxamide]",233
11,Cc1ncc(NC(=O)CCN2CCCC23CC3)cc1NC(=O)c1cnn2cc(-c3cnn(C)c3)sc12 [Example 98],4.7
12,"Cc1ncc(C(=O)NCCN2CCC3(CC3)C2)cc1NC(=O)c1cnn2cc(-c3cnn(C)c3)sc12 [Example 118, N-(5-((2-(5-azaspiro[2.4]heptan-5-yl)ethyl)carbamoyl)-2-methylpyridin-3-yl)-2-(1-methyl-1H-pyrazol-4-yl)pyrazolo[5,1-b]thiazole-7-carboxamide]",55.5
13,"COCCN(CCNC(=O)c1cnc(C)c(NC(=O)c2cnn3cc(-c4cnn(C)c4)sc23)c1)C1CCC1 [Example 115, N-(5-((2-(cyclobutyl(2-methoxyethyl)amino)ethyl)carbamoyl)-2-methylpyridin-3-yl)-2-(1-methyl-1H-pyrazol-4-yl)pyrazolo[5,1-b]thiazole-7-carboxamide]",13.3
14,"Cc1ncc(C(=O)NCCN2CCCC2(C)C)cc1NC(=O)c1cnn2cc(-c3cn(C)nc3C)sc12 [Example 174, 2-(1,3-dimethyl-1H-pyrazol-4-yl)-N-(5-((2-(2,2-dimethylpyrrolidin-1-yl)ethyl)carbamoyl)-2-methylpyridin-3-yl)pyrazolo[5,1-b]thiazole-7-carboxamide]",9.9
15,"Cc1ncc(C(=O)NCCN2CC3CCC2CC3)cc1NC(=O)c1cnn2cc(-c3ccncc3)sc12 [Example 148, N-(5-((2-(2-azabicyclo[2.2.2]octan-2-yl)ethyl)carbamoyl)-2-methylpyridin-3-yl)-2-(pyridin-4-yl)pyrazolo[5,1-b]thiazole-7-carboxamide]",28.9
16,"COCCn1cc(-c2cn3ncc(C(=O)Nc4cc(NC(=O)CCN5CC6CCC5CC6)cnc4C)c3s2)cn1 [Example 100, N-(5-(3-(2-azabicyclo[2.2.2]octan-2-yl)propanamido)-2-methylpyridin-3-yl)-2-(1-(2-methoxyethyl)-1H-pyrazol-4-yl)pyrazolo[5,1-b]thiazole-7-carboxamide]",33.4
17,"Cc1ncc(C(=O)NCCN2CCCC(F)(F)C2)cc1NC(=O)c1cnn2cc(-c3cnn(C)c3)sc12 [Example 123, N-(5-((2-(3,3-difluoropiperidin-1-yl)ethyl)carbamoyl)-2-methylpyridin-3-yl)-2-(1-methyl-1H-pyrazol-4-yl)pyrazolo[5,1-b]thiazole-7-carboxamide]",7.8
18,"Cc1ncc(NC(=O)CCN2CCCC2(C)C)cc1NC(=O)c1cnn2cc(-c3ccnn3C)sc12 [Example 11, N-(5-(3-(2,2-dimethylpyrrolidin-1-yl)propanamido)-2-methyl-pyridin-3-yl)-2-(1-methyl-1H-pyrazol-5-yl)pyrazolo[5,1-b]thiazole-7-carboxamide]",10.6
19,"Cc1ncc(C(=O)NCCN2CCCC2(C)C)cc1NC(=O)c1cnn2cc(-c3ccc(=O)[nH]n3)sc12 [Example 141, N-(5-((2-(2,2-dimethylpyrrolidin-1-yl)ethyl)carbamoyl)-2-methylpyridin-3-yl)-2-(6-oxo-1,6-dihydropyridazin-3-yl)pyrazolo[5,1-b]thiazole-7-carboxamide]",> 3000
20,"Cc1ncc(C(=O)NCCN2CC3(CCC3)C2)cc1NC(=O)c1cnn2cc(-c3cnn(C)c3)sc12 [Example 124, N-(5-((2-(2-azaspiro[3.3]heptan-2-yl)ethyl)carbamoyl)-2-methylpyridin-3-yl)-2-(1-methyl-1H-pyrazol-4-yl)pyrazolo[5,1-b]thiazole-7-carboxamide]",134
21,"Cc1ncc(C(=O)NCCN2CCCC2(C)C)cc1NC(=O)c1cnn2cc(-c3cnn(C)c3C)sc12 [Example 173, 2-(1,5-dimethyl-1H-pyrazol-4-yl)-N-(5-((2-(2,2-dimethylpyrrolidin-1-yl)ethyl)carbamoyl)-2-methylpyridin-3-yl)pyrazolo[5,1-b]thiazole-7-carboxamide]",11.8
22,"Cc1ncc(C(=O)NCCN2CCC3(CC3)C2)cc1NC(=O)c1cnn2cc(-c3cn(C)nc3C)sc12 [Example 177, N-(5-((2-(5-azaspiro[2.4]heptan-5-yl)ethyl)carbamoyl)-2-methylpyridin-3-yl)-2-(1,3-dimethyl-1H-pyrazol-4-yl)pyrazolo[5,1-b]thiazole-7-carboxamide]",18.2
23,"Cc1ncc(C(=O)NCCN2CCCC2(C)C)cc1NC(=O)c1cnn2cc(-c3cnn(C4CC4)c3)sc12 [Example 6, 2-(1-cyclopropyl-1H-pyrazol-4-yl)-N-(5-((2-(2,2-dimethylpyrrolidin-1-yl)ethyl)carbamoyl)-2-methylpyridin-3-yl)pyrazolo[5,1-b]thiazole-7-carboxamide]",7.7
24,"Cc1ncc(C(=O)NCCN2CCCC2(C)C)cc1NC(=O)c1cnn2cc(-c3cnn(C)c3)sc12 [Example 8, N-(5-((2-(2,2-dimethylpyrrolidin-1-yl)ethyl)carbamoyl)-2-methylpyridin-3-yl)-2-(1-methyl-1H-pyrazol-4-yl)pyrazolo[5,1-b]thiazole-7-carboxamide]",43.6
